Measurements: ChEMBL document CHEMBL1201862, “PubChem BioAssay data set” (2004)
The source made the active and inactive calls.

Experiments:
[1] = target: DNA dC->dU-editing enzyme APOBEC-3A (Homo sapiens, UniProt P31941); test: Dose Response confirmation of small molecule APOBEC3A DNA Deaminase Inhibitors via a fluorescence-based single-stranded DNA deaminase assay. [Related pubchem assays (depositor defined):AID493011, AID493024]; assay type: functional
[2] = target: DNA dC->dU-editing enzyme APOBEC-3G (Homo sapiens, UniProt Q9HC16); assay type: functional;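 note: Dose-response counterscreen measuring inhibition of APOBEC3G DNA deaminase activity, run while confirming APOBEC3A inhibitors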
DNA dC->dU-editing enzyme APOBEC-3G, sequence (Q9HC16 whole entry): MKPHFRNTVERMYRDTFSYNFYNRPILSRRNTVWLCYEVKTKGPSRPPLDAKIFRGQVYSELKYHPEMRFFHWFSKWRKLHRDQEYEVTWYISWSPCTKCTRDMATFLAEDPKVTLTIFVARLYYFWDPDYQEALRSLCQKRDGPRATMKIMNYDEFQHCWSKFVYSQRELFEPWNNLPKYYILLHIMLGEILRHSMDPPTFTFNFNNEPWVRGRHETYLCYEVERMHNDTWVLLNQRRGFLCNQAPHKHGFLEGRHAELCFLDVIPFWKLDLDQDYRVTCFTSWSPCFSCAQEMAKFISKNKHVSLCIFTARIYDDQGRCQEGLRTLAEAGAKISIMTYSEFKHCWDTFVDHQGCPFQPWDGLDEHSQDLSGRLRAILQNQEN

[3] = viability of HCT116 lacking mutant beta-catenin – cell-based, human colon tumor, dose response (AID 1045); assay type: functional;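 note: HCT116 colon tumor cells with beta catenin knocked out; cells exposed to compound for 60 hours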
[4] = viability of PTEN-deleted HCT116 cells – cell-based, HCT116 PTEN knockout, dose response (AID 1047); assay type: functional;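 note: HCT116 colon tumor cells with PTEN knocked out; cells exposed to compound for 60 hours before readout; potency for loss of cell viability measured by luminescence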
[5] = target: Voltage-dependent T-type calcium channel subunit alpha-1H (Homo sapiens, UniProt O95180); assay type: functional;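 note: channel activity triggered by adding a high calcium stimulation buffer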
Voltage-dependent T-type calcium channel subunit alpha-1H, sequence (O95180 whole entry): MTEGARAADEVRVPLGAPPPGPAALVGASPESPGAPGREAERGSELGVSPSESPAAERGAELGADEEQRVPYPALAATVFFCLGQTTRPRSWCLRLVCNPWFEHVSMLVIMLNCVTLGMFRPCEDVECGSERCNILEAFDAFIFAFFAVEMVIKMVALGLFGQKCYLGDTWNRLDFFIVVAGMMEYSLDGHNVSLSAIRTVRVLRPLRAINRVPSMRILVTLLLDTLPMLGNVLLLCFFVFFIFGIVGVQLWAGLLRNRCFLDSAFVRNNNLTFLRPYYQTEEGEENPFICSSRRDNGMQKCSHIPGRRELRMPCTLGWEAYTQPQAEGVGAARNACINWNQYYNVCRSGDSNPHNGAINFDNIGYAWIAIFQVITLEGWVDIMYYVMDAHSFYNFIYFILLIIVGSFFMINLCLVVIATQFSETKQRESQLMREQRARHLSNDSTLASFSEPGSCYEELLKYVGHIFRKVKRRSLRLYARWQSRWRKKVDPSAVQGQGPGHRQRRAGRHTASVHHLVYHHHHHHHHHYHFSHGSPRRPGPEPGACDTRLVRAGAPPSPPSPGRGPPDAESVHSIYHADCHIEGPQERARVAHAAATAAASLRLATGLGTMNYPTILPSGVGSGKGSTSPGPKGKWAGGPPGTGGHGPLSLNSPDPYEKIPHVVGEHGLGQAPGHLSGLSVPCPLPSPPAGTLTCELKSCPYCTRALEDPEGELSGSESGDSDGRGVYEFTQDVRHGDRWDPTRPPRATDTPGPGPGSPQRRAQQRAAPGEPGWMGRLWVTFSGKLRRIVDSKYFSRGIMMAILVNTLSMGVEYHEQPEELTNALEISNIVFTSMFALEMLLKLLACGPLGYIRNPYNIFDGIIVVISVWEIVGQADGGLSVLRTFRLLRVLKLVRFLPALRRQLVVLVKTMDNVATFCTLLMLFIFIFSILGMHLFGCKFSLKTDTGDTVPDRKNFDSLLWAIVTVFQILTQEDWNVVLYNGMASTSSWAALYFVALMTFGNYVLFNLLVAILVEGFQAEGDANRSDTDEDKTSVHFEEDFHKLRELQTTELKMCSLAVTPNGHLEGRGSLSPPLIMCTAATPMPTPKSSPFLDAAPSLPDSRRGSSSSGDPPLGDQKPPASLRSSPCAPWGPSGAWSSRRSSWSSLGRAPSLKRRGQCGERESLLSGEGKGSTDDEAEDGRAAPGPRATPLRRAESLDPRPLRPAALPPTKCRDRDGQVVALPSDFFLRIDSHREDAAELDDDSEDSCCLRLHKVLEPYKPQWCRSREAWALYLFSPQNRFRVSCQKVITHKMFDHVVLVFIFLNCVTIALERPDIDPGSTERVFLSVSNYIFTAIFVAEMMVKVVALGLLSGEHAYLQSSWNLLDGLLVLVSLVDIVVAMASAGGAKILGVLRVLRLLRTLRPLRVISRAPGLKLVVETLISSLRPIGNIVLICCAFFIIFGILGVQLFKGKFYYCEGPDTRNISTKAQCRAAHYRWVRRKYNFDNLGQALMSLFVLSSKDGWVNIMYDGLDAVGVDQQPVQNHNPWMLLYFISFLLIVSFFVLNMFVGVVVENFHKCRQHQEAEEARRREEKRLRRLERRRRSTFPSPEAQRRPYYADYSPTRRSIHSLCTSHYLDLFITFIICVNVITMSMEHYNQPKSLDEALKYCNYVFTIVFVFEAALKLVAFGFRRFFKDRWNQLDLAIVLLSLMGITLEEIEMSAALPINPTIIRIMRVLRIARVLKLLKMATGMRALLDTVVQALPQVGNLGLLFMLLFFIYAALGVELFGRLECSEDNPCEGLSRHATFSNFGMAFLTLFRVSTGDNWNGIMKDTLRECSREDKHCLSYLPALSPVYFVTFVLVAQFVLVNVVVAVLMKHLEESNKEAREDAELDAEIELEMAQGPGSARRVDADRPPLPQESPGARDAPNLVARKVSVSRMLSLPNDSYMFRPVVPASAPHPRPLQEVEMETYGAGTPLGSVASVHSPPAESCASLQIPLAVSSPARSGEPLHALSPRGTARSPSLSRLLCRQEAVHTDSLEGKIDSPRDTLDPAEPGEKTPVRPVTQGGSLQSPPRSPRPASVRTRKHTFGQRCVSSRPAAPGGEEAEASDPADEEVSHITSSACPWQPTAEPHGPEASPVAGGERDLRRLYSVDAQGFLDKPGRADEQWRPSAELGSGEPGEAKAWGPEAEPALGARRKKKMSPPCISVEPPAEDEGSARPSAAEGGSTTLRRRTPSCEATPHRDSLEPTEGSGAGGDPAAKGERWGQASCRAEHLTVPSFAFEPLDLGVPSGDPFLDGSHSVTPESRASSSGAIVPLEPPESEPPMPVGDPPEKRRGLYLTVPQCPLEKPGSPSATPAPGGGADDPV

[6] = target: SUMO-activating enzyme (Homo sapiens, UniProt Q9UBT2); test: blockers of UBC9-mediated SUMO conjugation – biochemical, AlphaScreen, SUMOylation inhibitor project, confirmation (AID 2018); assay type: functional
SUMO-activating enzyme, sequence (Q9UBE0 whole entry): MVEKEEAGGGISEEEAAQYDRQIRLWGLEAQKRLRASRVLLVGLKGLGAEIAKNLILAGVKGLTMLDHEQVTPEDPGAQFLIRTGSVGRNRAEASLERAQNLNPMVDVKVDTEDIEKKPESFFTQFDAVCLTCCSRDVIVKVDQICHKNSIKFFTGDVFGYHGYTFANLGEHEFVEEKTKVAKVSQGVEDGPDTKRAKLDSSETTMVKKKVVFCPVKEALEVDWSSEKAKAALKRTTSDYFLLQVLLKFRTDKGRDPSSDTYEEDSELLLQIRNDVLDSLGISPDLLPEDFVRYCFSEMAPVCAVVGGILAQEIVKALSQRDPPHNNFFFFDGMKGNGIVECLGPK
SUMO-activating enzyme, sequence (Q9UBT2 whole entry): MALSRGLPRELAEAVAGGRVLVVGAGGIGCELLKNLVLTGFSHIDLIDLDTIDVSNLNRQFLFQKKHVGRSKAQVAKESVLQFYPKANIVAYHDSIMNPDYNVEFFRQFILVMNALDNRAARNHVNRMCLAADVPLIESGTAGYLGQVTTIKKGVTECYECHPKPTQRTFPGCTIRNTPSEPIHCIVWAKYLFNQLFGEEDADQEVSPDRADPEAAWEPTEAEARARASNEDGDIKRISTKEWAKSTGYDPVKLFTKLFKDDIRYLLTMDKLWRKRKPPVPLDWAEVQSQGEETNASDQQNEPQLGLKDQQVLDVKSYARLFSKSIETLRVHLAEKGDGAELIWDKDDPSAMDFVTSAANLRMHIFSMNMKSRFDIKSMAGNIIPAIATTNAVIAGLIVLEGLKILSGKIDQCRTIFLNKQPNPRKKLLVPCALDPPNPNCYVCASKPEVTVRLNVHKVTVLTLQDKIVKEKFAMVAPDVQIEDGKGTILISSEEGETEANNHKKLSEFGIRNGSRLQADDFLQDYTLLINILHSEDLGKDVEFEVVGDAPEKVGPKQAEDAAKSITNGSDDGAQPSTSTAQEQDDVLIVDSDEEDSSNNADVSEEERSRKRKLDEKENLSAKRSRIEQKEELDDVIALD

[7] = target: G-protein coupled receptor 55 (Homo sapiens, UniProt Q9Y2T6); test: inhibition of LPI-stimulated GPR55 beta-arrestin translocation – imaging, U2OS, beta-arrestin-GFP, LPI agonist, primary screen (AID 2013); assay type: functional;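 note: antagonist potency measured as reduced agonist-driven arrestin aggregation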
G-protein coupled receptor 55, sequence (Q9Y2T6 whole entry): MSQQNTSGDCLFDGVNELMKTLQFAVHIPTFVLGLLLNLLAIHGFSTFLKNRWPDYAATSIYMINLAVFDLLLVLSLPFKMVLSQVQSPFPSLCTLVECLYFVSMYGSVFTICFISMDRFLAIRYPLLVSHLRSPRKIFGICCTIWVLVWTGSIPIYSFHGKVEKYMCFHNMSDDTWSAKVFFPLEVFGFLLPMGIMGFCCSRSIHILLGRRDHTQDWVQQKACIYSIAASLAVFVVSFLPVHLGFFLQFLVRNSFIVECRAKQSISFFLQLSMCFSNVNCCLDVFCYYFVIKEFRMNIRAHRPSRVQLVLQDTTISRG

[8] = test system: INS1; test: INS-1E survival protection against cytokine death – cell-based, luminescence, retest, dose response (AID 449756); assay type: functional; settings: Rattus norvegicus;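 note: cell death triggered by IL-1 beta plus TNF-alpha plus IFN-gamma mixture; protective hits raise ATP signal compared with cytokine alone wells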
[9] = target: Dual specificity tyrosine-phosphorylation-regulated kinase 1A (Rattus norvegicus, UniProt Q63470); assay type: biochemical, Homo sapiens
[10] = Luminescence Cell-Based Dose Retest to Confirm Inhibitors of Cancer Stem Cells. [Related pubchem assays (depositor defined):AID2717, AID2721]; assay type: functional; settings: Homo sapiens
[11] = test system: Vero; test: cells; assay type: functional, cell-based; settings: Chlorocebus sabaeus
[12] = cells
[13] = target: T1, fMet-Leu-Phe receptor (Homo sapiens, UniProt P21462); test: formyl peptide receptor binders – dose response (AID 519); assay type: functional
T1 sequence (P21462 whole entry): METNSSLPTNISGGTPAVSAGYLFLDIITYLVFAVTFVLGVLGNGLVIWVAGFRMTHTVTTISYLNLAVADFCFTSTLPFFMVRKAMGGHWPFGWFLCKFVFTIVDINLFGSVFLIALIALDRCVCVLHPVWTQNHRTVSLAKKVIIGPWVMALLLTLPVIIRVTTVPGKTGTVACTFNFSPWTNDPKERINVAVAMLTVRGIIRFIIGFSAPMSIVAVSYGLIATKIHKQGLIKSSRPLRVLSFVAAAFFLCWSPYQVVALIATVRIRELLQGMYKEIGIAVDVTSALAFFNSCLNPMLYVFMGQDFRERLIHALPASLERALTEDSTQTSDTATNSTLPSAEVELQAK

[14] = test system: Vero; test: cells; assay type: functional; settings: Chlorocebus sabaeus
[15] = viability of uninfected HEp-2 cells – cell-based, HTS, cytotoxicity control for RSV inhibitor project, dose response (AID 2410); assay type: functional; settings: human respiratory syncytial virus
[16] = cells; assay type: functional, cell-based
[17] = cells; assay type: functional, cell-based; remark: listed apart in the source
[18] = target: T2, Caspase-3 (Homo sapiens, UniProt P42574); assay type: functional;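 note: Dose-response selectivity test against caspase-3 for candidate inhibitors of sentrin-specific proteases (SENPs)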
T2 sequence (P42574 whole entry): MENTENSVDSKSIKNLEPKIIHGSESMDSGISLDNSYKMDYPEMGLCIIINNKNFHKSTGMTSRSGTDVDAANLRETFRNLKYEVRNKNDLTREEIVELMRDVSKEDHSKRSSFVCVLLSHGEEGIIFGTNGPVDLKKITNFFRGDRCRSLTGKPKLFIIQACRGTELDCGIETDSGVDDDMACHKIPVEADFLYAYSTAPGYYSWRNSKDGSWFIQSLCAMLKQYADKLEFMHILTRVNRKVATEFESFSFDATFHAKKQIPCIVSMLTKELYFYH

[19] = target: T3, Sentrin-specific protease 7 (Homo sapiens, UniProt Q9BQF6); assay type: functional;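 note: Luminescence-based dose-response confirmation of ultra-high-throughput screening hits, measuring inhibition of SENP7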
T3 sequence (Q9BQF6 whole entry): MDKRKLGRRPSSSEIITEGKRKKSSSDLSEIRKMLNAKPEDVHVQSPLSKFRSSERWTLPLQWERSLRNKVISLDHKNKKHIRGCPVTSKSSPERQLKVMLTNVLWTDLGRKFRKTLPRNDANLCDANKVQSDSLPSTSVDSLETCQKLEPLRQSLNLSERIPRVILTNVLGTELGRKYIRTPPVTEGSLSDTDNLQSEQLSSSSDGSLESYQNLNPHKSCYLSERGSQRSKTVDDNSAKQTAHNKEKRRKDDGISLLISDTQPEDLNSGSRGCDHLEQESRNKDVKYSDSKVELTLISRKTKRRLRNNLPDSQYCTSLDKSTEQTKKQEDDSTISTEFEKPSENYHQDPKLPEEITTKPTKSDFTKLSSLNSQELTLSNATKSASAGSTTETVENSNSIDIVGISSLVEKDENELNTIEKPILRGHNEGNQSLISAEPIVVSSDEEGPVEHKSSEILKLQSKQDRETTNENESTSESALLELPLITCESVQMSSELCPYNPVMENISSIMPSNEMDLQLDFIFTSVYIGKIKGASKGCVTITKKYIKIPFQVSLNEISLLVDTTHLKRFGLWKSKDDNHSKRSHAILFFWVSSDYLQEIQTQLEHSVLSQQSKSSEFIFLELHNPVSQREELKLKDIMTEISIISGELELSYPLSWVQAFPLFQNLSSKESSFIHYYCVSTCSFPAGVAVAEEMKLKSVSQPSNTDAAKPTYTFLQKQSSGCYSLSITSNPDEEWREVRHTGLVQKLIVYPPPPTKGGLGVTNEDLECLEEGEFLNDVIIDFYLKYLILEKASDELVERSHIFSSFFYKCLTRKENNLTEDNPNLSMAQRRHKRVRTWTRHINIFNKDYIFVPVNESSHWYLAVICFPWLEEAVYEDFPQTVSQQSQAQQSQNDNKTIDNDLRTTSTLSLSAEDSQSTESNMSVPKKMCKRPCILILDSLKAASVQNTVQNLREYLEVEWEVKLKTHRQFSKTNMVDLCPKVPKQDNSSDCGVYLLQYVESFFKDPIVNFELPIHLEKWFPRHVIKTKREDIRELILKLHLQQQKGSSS

[20] = target: T4, Sentrin-specific protease 6 (Homo sapiens, UniProt Q9GZR1); assay type: functional;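 note: Luminescence-based dose-response confirmatory assay of SENP6 inhibition, following up an ultra-high-throughput screen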
T4 sequence (Q9GZR1 whole entry): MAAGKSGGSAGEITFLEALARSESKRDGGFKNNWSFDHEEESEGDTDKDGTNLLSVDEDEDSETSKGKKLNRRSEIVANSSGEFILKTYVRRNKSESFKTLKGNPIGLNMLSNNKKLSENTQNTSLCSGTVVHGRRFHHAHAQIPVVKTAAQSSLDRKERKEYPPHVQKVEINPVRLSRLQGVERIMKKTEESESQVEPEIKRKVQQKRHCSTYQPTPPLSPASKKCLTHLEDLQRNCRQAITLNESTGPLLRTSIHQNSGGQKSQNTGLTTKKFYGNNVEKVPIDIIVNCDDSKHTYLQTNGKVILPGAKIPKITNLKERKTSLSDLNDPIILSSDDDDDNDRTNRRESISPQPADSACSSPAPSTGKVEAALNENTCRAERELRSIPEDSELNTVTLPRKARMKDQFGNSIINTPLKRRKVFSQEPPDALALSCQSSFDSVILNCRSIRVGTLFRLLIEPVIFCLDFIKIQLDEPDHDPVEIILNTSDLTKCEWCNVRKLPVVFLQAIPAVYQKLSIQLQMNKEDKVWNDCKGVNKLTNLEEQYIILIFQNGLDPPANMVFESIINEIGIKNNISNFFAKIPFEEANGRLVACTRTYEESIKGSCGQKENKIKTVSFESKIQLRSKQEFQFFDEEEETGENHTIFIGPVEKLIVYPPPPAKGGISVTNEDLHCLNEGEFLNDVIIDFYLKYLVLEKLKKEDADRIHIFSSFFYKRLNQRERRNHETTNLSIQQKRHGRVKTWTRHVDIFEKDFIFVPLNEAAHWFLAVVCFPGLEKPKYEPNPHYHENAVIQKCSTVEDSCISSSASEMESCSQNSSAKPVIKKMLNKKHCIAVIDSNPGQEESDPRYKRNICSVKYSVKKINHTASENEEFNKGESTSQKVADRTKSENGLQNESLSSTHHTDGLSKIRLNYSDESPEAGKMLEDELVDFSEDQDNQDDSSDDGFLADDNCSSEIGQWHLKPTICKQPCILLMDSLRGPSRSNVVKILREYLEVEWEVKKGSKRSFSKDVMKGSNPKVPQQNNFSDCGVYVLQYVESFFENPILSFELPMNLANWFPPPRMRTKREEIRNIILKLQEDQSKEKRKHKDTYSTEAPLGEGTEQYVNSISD

[21] = target: T5, Sentrin-specific protease 8 (Homo sapiens, UniProt Q96LD8); assay type: functional;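 note: luminescence read-out of SENP8 inhibition, dose-response confirmation following an ultra-high-throughput screen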
T5 sequence (Q96LD8 whole entry): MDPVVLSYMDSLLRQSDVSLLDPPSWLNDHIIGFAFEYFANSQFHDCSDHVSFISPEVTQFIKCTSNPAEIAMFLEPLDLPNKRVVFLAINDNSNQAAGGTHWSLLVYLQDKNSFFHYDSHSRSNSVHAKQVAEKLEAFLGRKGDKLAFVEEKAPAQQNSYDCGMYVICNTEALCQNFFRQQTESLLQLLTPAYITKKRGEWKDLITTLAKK

[22] = THP-1 cell cytotoxicity, dose response, cytotoxicity control for non-replicating M. tuberculosis project (AID 489025); assay type: functional
[23] = HepG2 cell cytotoxicity, dose response, cytotoxicity control for non-replicating M. tuberculosis project (AID 489018); assay type: functional; settings: Mycobacterium tuberculosis
[24] = cells; assay type: functional
[25] = Vero E6 cell cytotoxicity, dose response, cytotoxicity control for non-replicating M. tuberculosis project, secondary assay (AID 492998); assay type: functional, VeroE6; settings: Vero C1008
[26] = test system: H9c2; test: cells; assay type: functional, cell-based; settings: Rattus norvegicus, H9c2, Myocardium;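 note: confirmatory concentration-response retest of ultra-high-throughput screening hits for modulation of myocardial damage; cell death induced by hydrogen peroxide oxidative stress; compound pretreatment for 60 min then peroxide exposure for 2 h; potency is for protecting the cells against peroxide damage rather than for killing them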
[27] = target: T6, Rac GTPase-activating protein 1 (Homo sapiens, UniProt Q9H0H5); test: blockers of MgcRacGAP-driven Rac1 GTP hydrolysis – biochemical, ADP Hunter fluorescence, primary and confirmatory, confirmation (AID 624330); assay type: functional
T6 sequence (Q9H0H5 whole entry): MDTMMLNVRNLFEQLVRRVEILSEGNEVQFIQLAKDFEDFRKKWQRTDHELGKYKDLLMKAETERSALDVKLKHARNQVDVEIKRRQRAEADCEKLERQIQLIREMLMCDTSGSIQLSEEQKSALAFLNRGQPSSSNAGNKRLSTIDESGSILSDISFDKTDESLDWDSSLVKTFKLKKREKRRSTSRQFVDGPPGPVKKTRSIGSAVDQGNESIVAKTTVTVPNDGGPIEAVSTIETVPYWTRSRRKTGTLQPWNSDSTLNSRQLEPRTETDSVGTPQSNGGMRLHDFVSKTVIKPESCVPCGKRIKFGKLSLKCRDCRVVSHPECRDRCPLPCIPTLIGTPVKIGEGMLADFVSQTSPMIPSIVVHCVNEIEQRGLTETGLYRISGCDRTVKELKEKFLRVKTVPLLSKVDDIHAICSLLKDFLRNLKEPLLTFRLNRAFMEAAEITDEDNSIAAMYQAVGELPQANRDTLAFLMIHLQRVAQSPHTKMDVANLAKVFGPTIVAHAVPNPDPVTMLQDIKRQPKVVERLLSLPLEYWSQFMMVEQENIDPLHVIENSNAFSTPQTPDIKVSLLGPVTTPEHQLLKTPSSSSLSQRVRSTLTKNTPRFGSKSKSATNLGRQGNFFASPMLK

DNA dC->dU-editing enzyme APOBEC-3A, sequence (P31941 whole entry): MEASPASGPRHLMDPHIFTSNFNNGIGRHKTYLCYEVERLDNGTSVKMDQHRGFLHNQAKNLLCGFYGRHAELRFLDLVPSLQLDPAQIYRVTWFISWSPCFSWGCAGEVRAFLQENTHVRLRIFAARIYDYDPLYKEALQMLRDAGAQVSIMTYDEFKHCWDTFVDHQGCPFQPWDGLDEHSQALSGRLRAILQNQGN

## C[N+](C)(C)CCCNC(=O)c1ccc(C=NO)nc1
[1]
  IC50: 2.7 µM (active)
[2]
  IC50: 4.16 µM (active)

## CC[n+]1c(/C=C/C=C/N(C(C)=O)c2ccccc2)sc2ccccc21
[3]
  EC50: 19.7 µM (active)
[4]
  EC50: 20.8 µM (active)
[5]
  EC50: 2.21 µM (active)

## COc1ccc(-c2nnc(SCC(=O)Nc3cc(C)on3)[nH]2)cc1
[6]
  IC50: > 100 µM (inactive)

## Cc1ccccc1-c1cc(C(=O)Nc2sc(C)c(C)c2C(N)=O)c2ccccc2n1
[7]
  IC50: 2.76 µM (active)
[8]
  AC50: 5.87 µM (active)

## CC12CCC(C(=O)Nc3nc4ccc(Br)cc4s3)(OC1=O)C2(C)C (stereo not given)
[9]
  AC50: 1.36 µM (active)

## Cc1nn(-c2nc3ccccc3s2)c(C)c1Oc1ccccc1O
[10]
  AC50: 5.5 µM (active)
[11]
  IC50: 11.7 µM (active)
[12]
  IC50: 15.6 µM (active)
[13]
  Ki: > 66.7 µM (inactive)
[14]
  CC50: > 25 µM (active)
[15]
  CC50: 20.6 µM (active)

## CCN(CCCNC(=O)CCc1nc(-c2ccc(OC)cc2)no1)c1cccc(C)c1
[16]
  EC50: > 350 µM (not active)
[17]
  EC50: > 350 µM (not active)
[5]
  EC50: 4.41 µM (active)

## COc1ccc(C(N)=NOC(=O)Cc2cccs2)cc1
[18]
  IC50: 32 µM (active)
[19]
  IC50: 11.3 µM (active)
[20]
  IC50: 37.2 µM (active)
[21]
  IC50: 6.43 µM (active)

## COc1ccc(C(=O)COC(=O)c2n[nH]c3ccccc23)c(OC)c1
[18]
  IC50: 33 µM (active)
[19]
  IC50: 8.72 µM (active)
[20]
  IC50: 29.9 µM (active)
[21]
  IC50: 40.3 µM (active)

## CC(=O)c1ccc(C(=O)Nc2nnc(-c3ccc(Cl)cc3)o2)cc1
[22]
  CC50: 7.9 µM (active)
[23]
  CC50: 13.1 µM (active)
[24]
  IC50: 0.47 µM (active)
[25]
  CC50: 8.62 µM (active)
[26]
  IC50: > 79 µM (inactive)

## COc1ccc([N+](=O)[O-])cc1CSc1ccccn1
[1]
  IC50: 8.44 µM (active)
[2]
  IC50: 7.41 µM (active)

## CCCc1n(CC(O)COC2CCCCC2)c2ccccc2[n+]1CC (stereo not given)
[1]
  IC50: 3.26 µM (active)
[2]
  IC50: 3.93 µM (active)

## Cc1csc(NC(=O)CSc2nc3ccccc3s2)n1
[5]
  EC50: 7.68 µM (active)

## CCc1ccccc1/N=C1/S/C(=C/c2ccccc2OCC(=O)N2CCOCC2)C(=O)N1C
[7]
  IC50: 2.71 µM (active)

## COc1cc(/C=C2\Oc3cc(O)ccc3C2=O)ccc1O
[27]
  IC50: 26 µM (active)
[9]
  AC50: 0.641 µM (active)

## COc1ccc(/C=C/C(=O)O)cc1 [4-METHOXYCINNAMIC ACID]
[9]
  AC50: 21 µM (active)
